Experimental data from patent US20210400967A1, “COMPOSITIONS COMPRISING PYRIDINE CARBOXYLATE HERBICIDES WITH GLYPHOSATE OR GLUFOSINATE” (Corteva Agriscience LLC, priority 2018, published 2021).

Key:
Assay type in all cases: in vivo
[1] = system: Brassica napus (winter rape); assay: Greenhouse postemergence herbicidal effect, winter rape (BRSNW); conditions: 20-22 d; for % visual injury: Example 1
Source text: (§1) Greenhouse Trial Methodology—Evaluation of Postemergence Herbicidal Effect
(§2) Seeds of the desired test plant species were planted in a 90:10% v/v (volume/volume) mixture of PRO-MIX® BX (Premier Tech Horticulture, Quakertown, Pa., USA) and PROFILE® GREENS GRADE™ (Profile Products LLC, Buffalo Grove, Ill., USA) planting mixture, which typically has a pH of 5.2 to 6.2 and an organic matter content of at least 50 percent, in plastic pots with a surface area of 103.2 square centimeters (cm^2). In some aspects, to ensure good germination and healthy plants, a fungicide treatment and/or other chemical or physical treatment was applied. The plants were grown for 7-36 days (d) in a greenhouse with an approximate 14-hour (h) photo-period which was maintained at about 23° C. during the day and 22° C. during the night. Nutrients and water were added on a regular basis and supplemental lighting was provided with overhead metal halide 1000-Watt lamps as necessary. The plants were employed for testing when they reached the second or third true leaf stage.
(§3) Emulsifiable concentrates of each of each pyridine carboxylate herbicide (Compound A or Compound B) were prepared at 100 grams acid equivalent per liter (g ae/L). The emulsifiable concentrates also included a safener, cloquintocet-mexyl, at 120 grams active ingredient per liter (g ai/L). An aliquot of each emulsifiable concentrate was placed in a 25 mL glass vial and diluted with an aqueous mixture of 1.25% (v/v) ACTIROB® B esterified rapeseed oil (Bayer Crop Science, Research Triangle Park, N.C., USA) or MSO® Concentrate with LECI-TECH® methylated soybean oil (Loveland Products, Loveland, Colo., USA) to obtain concentrated stock solutions at the highest application rate for each herbicide, based upon a 12 milliliter (mL) application volume at a rate of 187 liters per hectare (L/ha). The concentrated stock solutions were further diluted with an aqueous mixture of 1.25% v/v ACTIROB® B or MSO® Concentrate with LECI-TECH® to obtain stock solutions at reduced application rates for each herbicide. Spray solutions of the herbicide combinations (Compound A or Compound B plus glyphosate or glufosinate) were prepared by adding weighed amounts or aliquots of the glyphosate or glufosinate to the stock solutions of Compound A or Compound B to form 12-mL spray solutions in two-way combinations.
(§4) The spray solutions were applied to the plant material with an overhead Mandel track sprayer equipped with 8002E nozzles calibrated to deliver 187 L/ha over an application area of 0.503 square meters (m^2) at a spray height of 18 inches (43 centimeters (cm)) above the average plant canopy. Control plants were sprayed in the same manner with the solvent blank. All pyridine carboxylate herbicide (component a) application rates are given as “g ae/ha” and all glyphosate or glufosinate (component b) application rates are given as “g ai/ha.”
(§5) The treated plants and control plants were placed in a greenhouse as described above and watered by sub-irrigation to prevent wash-off of the test compounds. After 20-22 d, the condition of the test plants as compared with that of the control plants was determined visually and scored on a scale of 0 to 100 percent where 0 corresponds to no injury and 100 corresponds to complete kill.

[2] = system: Polygonum convolvulus (wild buckwheat); assay: Greenhouse postemergence herbicidal effect, wild buckwheat (POLCO); conditions: 20-22 d; for % visual injury: Example 1
Source text: as §1, §2, §3, §4, §5

[3] = system: Sinapis arvensis (wild mustard); assay: Greenhouse postemergence herbicidal effect, wild mustard (SINAR); conditions: 20-22 d; for % visual injury: Example 1
Source text: as §1, §2, §3, §4, §5

[4] = system: Salsola kali (Russian thistle); assay: Greenhouse postemergence herbicidal effect, Russian thistle (SASKR); conditions: 20-22 d; for % visual injury: Example 1
Source text: as §1, §2, §3, §4, §5

[5] = system: Kochia scoparia (kochia); assay: Greenhouse postemergence herbicidal effect, kochia (KCHSC); conditions: 20-22 d; for % visual injury: Example 1
Source text: as §1, §2, §3, §4, §5

[6] = system: Chenopodium album L. (common lambsquarters); assay: Greenhouse postemergence herbicidal effect, common lambsquarters (CHEAL); conditions: 20-22 d; for % visual injury: Example 1
Source text: as §1, §2, §3, §4, §5

[7] = system: Amaranthus retroflexus (pigweed); assay: Greenhouse postemergence herbicidal effect, pigweed (AMARE); conditions: 20-22 d; for % visual injury: Example 1
Source text: as §1, §2, §3, §4, §5

[8] = system: Matricaria chamomilla (wild chamomile); assay: Greenhouse postemergence herbicidal effect, wild chamomile (MATCH); conditions: 20-22 d; for % visual injury: Example 1
Source text: as §1, §2, §3, §4, §5

[9] = system: Cirsium arvense (Canadian thistle); assay: Greenhouse postemergence herbicidal effect, Canadian thistle (CIRAR); conditions: 20-22 d; for % visual injury: Example 1
Source text: as §1, §2, §3, §4, §5

[10] = system: Triticum aestivum (spring wheat); assay: Greenhouse postemergence phytotoxicity on crop, spring wheat (TRZAS); conditions: 20-22 d; for % visual injury: Example 1
Source text: as §1, §2, §3, §4, §5

[11] = system: Hordeum vulgare (spring barley); assay: Greenhouse postemergence phytotoxicity on crop, spring barley (HORVS); conditions: 20-22 d; for % visual injury: Example 1
Source text: as §1, §2, §3, §4, §5

[12] = system: Viola tricolor (wild pansy); assay: Greenhouse postemergence herbicidal effect, wild pansy (VIOTR); conditions: Example 5, 20-22 d
Source text: as §1, §2, §3, §4, §5

[13] = system: Stellaria media (chickweed); assay: Greenhouse postemergence herbicidal effect, chickweed (STEME); conditions: Example 5, 20-22 d
Source text: as §1, §2
(§6) Emulsifiable concentrates of each of each pyridine carboxylate herbicide (Compound A or Compound B) were prepared at 100 grams acid equivalent per liter (g ae/L). The emulsifiable concentrates also included a safener, cloquintocet-mexyl, at 120 grams active ingredient per liter (g ai/L). […]
as §5

[14] = system: Echinochloa crus-galli (barnyardgrass); assay: Greenhouse postemergence herbicidal effect, barnyardgrass (ECHCG); conditions: Example 5, 20-22 d
Source text: as §1, §2, §6, §5

[15] = system: Euphorbia heterophylla (poinsettia); assay: Greenhouse postemergence herbicidal effect, poinsettia (EPHHL); conditions: Example 5, 20-22 d
Source text: as §1, §2, §6, §5

[16] = system: Sorghum vulgare (grain sorghum); assay: Greenhouse postemergence herbicidal effect, grain sorghum (SORVU); conditions: Example 5, 20-22 d
Source text: as §1, §2, §6, §5

[17] = system: Cyperus esculentus (nutsedge); assay: Greenhouse postemergence herbicidal effect, nutsedge (CYPES); conditions: Example 5, 20-22 d
Source text: as §1, §2, §6, §5

[18] = system: Rumex obtusifolius (broad-leaf dock); assay: Greenhouse postemergence herbicidal effect, broad-leaf dock (RUMOB); conditions: Example 5, 20-22 d
Source text: as §1, §2, §6, §5

[19] = system: Ipomoea hederacea (ivyleaf morningglory); assay: Greenhouse postemergence herbicidal effect, ivyleaf morningglory (IPOHE); conditions: Example 5, 20-22 d
Source text: as §1, §2, §6, §5

[20] = system: Helianthus annuus (common sunflower); assay: Greenhouse postemergence herbicidal effect, common sunflower (HELAN); conditions: Example 5, 20-22 d
Source text: as §1, §2, §6, §5

[21] = Example 2, Compound A 7.5 g ae/ha alone
[22] = Example 2, Compound A 10 g ae/ha alone
[23] = Example 6, Compound A 7.5 g ae/ha alone
[24] = Example 6, Compound A 10 g ae/ha alone
[25] = Example 5, Compound A 7.5 g ae/ha alone
[26] = Example 5, Compound A 10 g ae/ha alone

## N#CCOC(=O)c1nc(-c2ccc3cc[nH]c3c2F)c(F)c(N)c1Cl [Compound A, cyanomethyl 4-amino-3-chloro-5-fluoro-6-(7-fluoro-1H-indol-6-yl)pyridine-2-carboxylate]
[1]; Compound A 7.5 g ae/ha alone
  % visual injury: 35%
[1]; Compound A 10 g ae/ha alone
  % visual injury: 43%
[1]; [21]
  % visual injury, Obs: 35%
[1]; [22]
  % visual injury, Obs: 40%
[1]; [23]
  % visual injury, Obs: 35%
[1]; [24]
  % visual injury, Obs: 40%
[2]; Compound A 7.5 g ae/ha alone
  % visual injury: 78%
[2]; Compound A 10 g ae/ha alone
  % visual injury: 93%
[2]; [21]
  % visual injury, Obs: 30%
[2]; [22]
  % visual injury, Obs: 43%
[2]; [25]
  % visual injury, Obs: 83%
[2]; [26]
  % visual injury, Obs: 93%
[2]; [23]
  % visual injury, Obs: 30%
[2]; [24]
  % visual injury, Obs: 43%
[3]; Compound A 7.5 g ae/ha alone
  % visual injury: 88%
[3]; Compound A 10 g ae/ha alone
  % visual injury: 90%
[3]; [21]
  % visual injury, Obs: 83%
[3]; [22]
  % visual injury, Obs: 88%
[3]; [23]
  % visual injury, Obs: 83%
[3]; [24]
  % visual injury, Obs: 88%
[4]; Compound A 7.5 g ae/ha alone
  % visual injury: 60%
[4]; Compound A 10 g ae/ha alone
  % visual injury: 63%
[4]; [21]
  % visual injury, Obs: 60%
[4]; [22]
  % visual injury, Obs: 63%
[4]; [23]
  % visual injury, Obs: 60%
[4]; [24]
  % visual injury, Obs: 63%
[5]; Compound A 7.5 g ae/ha alone
  % visual injury: 63%
[5]; Compound A 10 g ae/ha alone
  % visual injury: 63%
[5]; [21]
  % visual injury, Obs: 70%
[5]; [22]
  % visual injury, Obs: 70%
[5]; [25]
  % visual injury, Obs: 75%
[5]; [26]
  % visual injury, Obs: 73%
[5]; [23]
  % visual injury, Obs: 70%
[5]; [24]
  % visual injury, Obs: 70%
[6]; Compound A 7.5 g ae/ha alone
  % visual injury: 88%
[6]; Compound A 10 g ae/ha alone
  % visual injury: 93%
[6]; [21]
  % visual injury, Obs: 75%
[6]; [22]
  % visual injury, Obs: 80%
[6]; [23]
  % visual injury, Obs: 75%
[6]; [24]
  % visual injury, Obs: 80%
[7]; Compound A 7.5 g ae/ha alone
  % visual injury: 78%
[7]; Compound A 10 g ae/ha alone
  % visual injury: 73%
[7]; [21]
  % visual injury, Obs: 90%
[7]; [22]
  % visual injury, Obs: 85%
[7]; [23]
  % visual injury, Obs: 90%
[7]; [24]
  % visual injury, Obs: 85%
[8]; Compound A 7.5 g ae/ha alone
  % visual injury: 20%
[8]; Compound A 10 g ae/ha alone
  % visual injury: 30%
[8]; [21]
  % visual injury, Obs: 10%
[8]; [22]
  % visual injury, Obs: 20%
[8]; [23]
  % visual injury, Obs: 10%
[8]; [24]
  % visual injury, Obs: 20%
[9]; Compound A 7.5 g ae/ha alone
  % visual injury: 30%
[9]; Compound A 10 g ae/ha alone
  % visual injury: 40%
[9]; [21]
  % visual injury, Obs: 40%
[9]; [22]
  % visual injury, Obs: 55%
[9]; [25]
  % visual injury, Obs: 40%
[9]; [26]
  % visual injury, Obs: 60%
[9]; [23]
  % visual injury, Obs: 40%
[9]; [24]
  % visual injury, Obs: 55%
[10]; Compound A 7.5 g ae/ha alone
  % visual injury: 0%
[10]; Compound A 10 g ae/ha alone
  % visual injury: 0%
[10]; [21]
  % visual injury, Obs: 0%
[10]; [22]
  % visual injury, Obs: 0%
[10]; [23]
  % visual injury, Obs: 0%
[10]; [24]
  % visual injury, Obs: 0%
[11]; Compound A 7.5 g ae/ha alone
  % visual injury: 0%
[11]; Compound A 10 g ae/ha alone
  % visual injury: 0%
[11]; [21]
  % visual injury, Obs: 0%
[11]; [22]
  % visual injury, Obs: 0%
[11]; [23]
  % visual injury, Obs: 0%
[11]; [24]
  % visual injury, Obs: 0%
[12]; Compound A 7.5 g ae/ha alone
  % visual injury, Obs: 38%
[12]; Compound A 10 g ae/ha alone
  % visual injury, Obs: 15%
[13]; Compound A 7.5 g ae/ha alone
  % visual injury, Obs: 89%
[13]; Compound A 10 g ae/ha alone
  % visual injury, Obs: 90%
[14]; Compound A 7.5 g ae/ha alone
  % visual injury, Obs: 88%
[14]; Compound A 10 g ae/ha alone
  % visual injury, Obs: 80%
[15]; Compound A 7.5 g ae/ha alone
  % visual injury, Obs: 97%
[15]; Compound A 10 g ae/ha alone
  % visual injury, Obs: 97%
[16]; Compound A 7.5 g ae/ha alone
  % visual injury, Obs: 0%
[16]; Compound A 10 g ae/ha alone
  % visual injury, Obs: 0%
[17]; Compound A 7.5 g ae/ha alone
  % visual injury, Obs: 30%
[17]; Compound A 10 g ae/ha alone
  % visual injury, Obs: 8%
[18]; Compound A 7.5 g ae/ha alone
  % visual injury, Obs: 20%
[18]; Compound A 10 g ae/ha alone
  % visual injury, Obs: 13%
[19]; Compound A 7.5 g ae/ha alone
  % visual injury, Obs: 20%
[19]; Compound A 10 g ae/ha alone
  % visual injury, Obs: 25%
[20]; Compound A 7.5 g ae/ha alone
  % visual injury, Obs: 90%
[20]; Compound A 10 g ae/ha alone
  % visual injury, Obs: 89%
